Measured values from PubChem BioAssay AID1963853 (Molecular Pharmacology Branch, DTP, NCI, 2024).

Tested on: 266295-075-R-J1-PDC spheroid viability
Assay: Anticancer human tumor 266295-075-R-J1-PDC patient-derived head and neck squamous carcinoma cell line growth inhibition [POLQ]
Conditions: spheroids with HUVEC and MSC; for IC50: curve of first compound; for viability, T/C: stronger effect = lower value
Method in brief: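 Three-cell-type spheroids modelling solid tumor plus stroma served as the readout system; POL inhibitors were tested individually and in combination, concentration ranges set by clinical Cmax where known.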

[1] = second compound 0.0316 µM, first compound 0.00316 µM
[2] = second compound 0.0316 µM, first compound 0.01 µM
[3] = second compound 0.0316 µM, first compound 0.0316 µM
[4] = second compound 0.0316 µM, first compound 0.1 µM
[5] = second compound 0.0316 µM, first compound 0.316 µM
[6] = second compound 0.0316 µM, first compound 1 µM
[7] = second compound 0.1 µM, first compound 0.00316 µM
[8] = second compound 0.1 µM, first compound 0.01 µM
[9] = second compound 0.1 µM, first compound 0.0316 µM
[10] = second compound 0.1 µM, first compound 0.1 µM
[11] = second compound 0.1 µM, first compound 0.316 µM
[12] = second compound 0.1 µM, first compound 1 µM
[13] = second compound 0.316 µM, first compound 0.00316 µM
[14] = second compound 0.316 µM, first compound 0.01 µM
[15] = second compound 0.316 µM, first compound 0.0316 µM
[16] = second compound 0.316 µM, first compound 0.1 µM
[17] = second compound 0.316 µM, first compound 0.316 µM
[18] = second compound 0.316 µM, first compound 1 µM
[19] = second compound 1 µM, first compound 0.00316 µM
[20] = second compound 1 µM, first compound 0.01 µM
[21] = second compound 1 µM, first compound 0.0316 µM
[22] = second compound 1 µM, first compound 0.1 µM
[23] = second compound 1 µM, first compound 0.316 µM
[24] = second compound 1 µM, first compound 1 µM
[25] = second compound 3.16 µM, first compound 0.00316 µM
[26] = second compound 3.16 µM, first compound 0.01 µM
[27] = second compound 3.16 µM, first compound 0.0316 µM
[28] = second compound 3.16 µM, first compound 0.1 µM
[29] = second compound 3.16 µM, first compound 0.316 µM
[30] = second compound 3.16 µM, first compound 1 µM
[31] = second compound 10 µM, first compound 0.00316 µM
[32] = second compound 10 µM, first compound 0.01 µM
[33] = second compound 10 µM, first compound 0.0316 µM
[34] = second compound 10 µM, first compound 0.1 µM
[35] = second compound 10 µM, first compound 0.316 µM
[36] = second compound 10 µM, first compound 1 µM
[37] = second compound 0.0316 µM, first compound 0.000316 µM
[38] = second compound 0.0316 µM, first compound 0.001 µM
[39] = second compound 0.1 µM, first compound 0.000316 µM
[40] = second compound 0.1 µM, first compound 0.001 µM
[41] = second compound 0.316 µM, first compound 0.000316 µM
[42] = second compound 0.316 µM, first compound 0.001 µM
[43] = second compound 1 µM, first compound 0.000316 µM
[44] = second compound 1 µM, first compound 0.001 µM
[45] = second compound 3.16 µM, first compound 0.000316 µM
[46] = second compound 3.16 µM, first compound 0.001 µM
[47] = second compound 10 µM, first compound 0.000316 µM
[48] = second compound 10 µM, first compound 0.001 µM
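Further: spheroids exposed to compounds for seven days before readout.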

In the case of `C=CCn1c(=O)c2cnc(Nc3ccc(N4CCN(C)CC4)cc3)nc2n1-c1cccc(C(C)(C)O)n1` + Cc1cccc(N(C)C(=O)C2C(O)CCN2c2nc(C)cc(C(F)(F)F)c2C#N)c1, the IC50 (second compound 0.0316 µM) is reported as greater than 1000 nM, the IC50 (second compound 0.1 µM) is reported as greater than 1000 nM and the IC50 (second compound 0.316 µM) is reported as greater than 1000 nM. It also gave an IC50 (second compound 1 µM) greater than 1000 nM, an IC50 (second compound 3.16 µM) greater than 1000 nM and an IC50 (second compound 10 µM) greater than 1000 nM. The viability, T/C [1] was 97.4%, the viability, T/C [2] was 97.7% and the viability, T/C [3] was 112%. For the same compound, the viability, T/C [4] was 101%, the viability, T/C [5] was 80% and the viability, T/C [6] was 62.5%. It also gave a viability, T/C [7] of 101%, a viability, T/C [8] of 115% and a viability, T/C [9] of 111%. The viability, T/C [10] was 127%, the viability, T/C [11] was 79.4% and the viability, T/C [12] was 63%. The viability, T/C [13] was 119%, the viability, T/C [14] was 116% and the viability, T/C [15] was 99.7%. The viability, T/C [16] was 131%, the viability, T/C [17] was 81.7% and the viability, T/C [18] was 64.7%. It also gave a viability, T/C [19] of 114%, a viability, T/C [20] of 104% and a viability, T/C [21] of 119%. For the same compound, the viability, T/C [22] was 78.4%, the viability, T/C [23] was 77.4% and the viability, T/C [24] was 63.6%. For the same compound, the viability, T/C [25] was 118%, the viability, T/C [26] was 93.6% and the viability, T/C [27] was 91.6%. It also gave a viability, T/C [28] of 116%, a viability, T/C [29] of 68.8% and a viability, T/C [30] of 71.5%. It also gave a viability, T/C [31] of 137%, a viability, T/C [32] of 117% and a viability, T/C [33] of 102%. For the same compound, the viability, T/C [34] was 128%, the viability, T/C [35] was 87.7% and the viability, T/C [36] was 81.8%.
`CC[C@@]1(O)C(=O)OCc2c1cc1n(c2=O)Cc2cc3c(CN(C)C)c(O)ccc3nc2-1` + Cc1cccc(N(C)C(=O)C2C(O)CCN2c2nc(C)cc(C(F)(F)F)c2C#N)c1 was tested, and the IC50 (second compound 0.0316 µM) was greater than 100 nM, the IC50 (second compound 0.1 µM) was greater than 100 nM and the IC50 (second compound 0.316 µM) was greater than 100 nM. It also gave an IC50 (second compound 1 µM) greater than 100 nM, an IC50 (second compound 3.16 µM) greater than 100 nM and an IC50 (second compound 10 µM) greater than 100 nM. For the same compound, the viability, T/C [37] was 75%, the viability, T/C [38] was 85.8% and the viability, T/C [1] was 107%. The viability, T/C [2] was 83.8%, the viability, T/C [3] was 91.3% and the viability, T/C [4] was 76.3%. The viability, T/C [39] was 94.2%, the viability, T/C [40] was 90.1% and the viability, T/C [7] was 77.6%. For the same compound, the viability, T/C [8] was 81.2%, the viability, T/C [9] was 86.6% and the viability, T/C [10] was 77.8%. The viability, T/C [41] was 101%, the viability, T/C [42] was 88% and the viability, T/C [13] was 88%. For the same compound, the viability, T/C [14] was 86.8%, the viability, T/C [15] was 106% and the viability, T/C [16] was 93.9%. The viability, T/C [43] was 79%, the viability, T/C [44] was 103% and the viability, T/C [19] was 85.2%. It also gave a viability, T/C [20] of 91.2%, a viability, T/C [21] of 92.3% and a viability, T/C [22] of 87.7%. For the same compound, the viability, T/C [45] was 78%, the viability, T/C [46] was 94.2% and the viability, T/C [25] was 92.4%. For the same compound, the viability, T/C [26] was 87.2%, the viability, T/C [27] was 91.9% and the viability, T/C [28] was 78.2%. The viability, T/C [47] was 122%, the viability, T/C [48] was 93.8% and the viability, T/C [31] was 93.3%. It also gave a viability, T/C [32] of 109%, a viability, T/C [33] of 115% and a viability, T/C [34] of 88.4%.
`CNCc1ccc(-c2[nH]c3cc(F)cc4c3c2CCNC4=O)cc1` + COC1C(OC(N)=O)C(O)C(Oc2ccc3c(O)c(NC(=O)c4ccc(O)c(CC=C(C)C)c4)c(=O)oc3c2C)OC1(C)C gave an IC50 (second compound 0.0316 µM) greater than 10000 nM, an IC50 (second compound 0.1 µM) greater than 10000 nM and an IC50 (second compound 0.316 µM) greater than 10000 nM. For the same compound, the IC50 (second compound 1 µM) was greater than 10000 nM, the IC50 (second compound 3.16 µM) was greater than 10000 nM and the IC50 (second compound 10 µM) was greater than 10000 nM. It also gave a viability, T/C [3] of 95.1%, a viability, T/C [4] of 79.6% and a viability, T/C [5] of 86.8%. The viability, T/C [6] was 78.3%, the viability, T/C (second compound 0.0316 µM, first compound 3.16 µM) was 83.8% and the viability, T/C (second compound 0.0316 µM, first compound 10 µM) was 98.2%. For the same compound, the viability, T/C [9] was 90.2%, the viability, T/C [10] was 85.1% and the viability, T/C [11] was 97.2%. For the same compound, the viability, T/C [12] was 86.9%, the viability, T/C (second compound 0.1 µM, first compound 3.16 µM) was 91.3% and the viability, T/C (second compound 0.1 µM, first compound 10 µM) was 99%. For the same compound, the viability, T/C [15] was 111%, the viability, T/C [16] was 83.3% and the viability, T/C [17] was 93.1%. The viability, T/C [18] was 91.5%, the viability, T/C (second compound 0.316 µM, first compound 3.16 µM) was 108% and the viability, T/C (second compound 0.316 µM, first compound 10 µM) was 114%. The viability, T/C [21] was 92.8%, the viability, T/C [22] was 92.4% and the viability, T/C [23] was 90.5%. It also gave a viability, T/C [24] of 83.7%, a viability, T/C (second compound 1 µM, first compound 3.16 µM) of 107% and a viability, T/C (second compound 1 µM, first compound 10 µM) of 105%. For the same compound, the viability, T/C [27] was 97.7%, the viability, T/C [28] was 85.5% and the viability, T/C [29] was 92.1%. For the same compound, the viability, T/C [30] was 81%, the viability, T/C (second compound 3.16 µM, first compound 3.16 µM) was 108% and the viability, T/C (second compound 3.16 µM, first compound 10 µM) was 115%. The viability, T/C [33] was 94.2%, the viability, T/C [34] was 82.5% and the viability, T/C [35] was 96.7%. It also gave a viability, T/C [36] of 101%, a viability, T/C (second compound 10 µM, first compound 3.16 µM) of 113% and a viability, T/C (second compound 10 µM, first compound 10 µM) of 105%.
`Cn1ncnc1[C@H]1c2n[nH]c(=O)c3cc(F)cc(c23)N[C@@H]1c1ccc(F)cc1` + Cc1cccc(N(C)C(=O)C2C(O)CCN2c2nc(C)cc(C(F)(F)F)c2C#N)c1 showed an IC50 (second compound 0.0316 µM) greater than 100 nM, an IC50 (second compound 0.1 µM) greater than 100 nM and an IC50 (second compound 0.316 µM) greater than 100 nM. The IC50 (second compound 1 µM) was greater than 100 nM, the IC50 (second compound 3.16 µM) was greater than 100 nM and the IC50 (second compound 10 µM) was greater than 100 nM. The viability, T/C [37] was 88.2%, the viability, T/C [38] was 93.7% and the viability, T/C [1] was 84.3%. The viability, T/C [2] was 109%, the viability, T/C [3] was 100% and the viability, T/C [4] was 96.5%. The viability, T/C [39] was 99.4%, the viability, T/C [40] was 104% and the viability, T/C [7] was 85.4%. The viability, T/C [8] was 115%, the viability, T/C [9] was 90% and the viability, T/C [10] was 87.9%. For the same compound, the viability, T/C [41] was 108%, the viability, T/C [42] was 99.2% and the viability, T/C [13] was 99.1%. It also gave a viability, T/C [14] of 104%, a viability, T/C [15] of 95.7% and a viability, T/C [16] of 99.7%. The viability, T/C [43] was 103%, the viability, T/C [44] was 122% and the viability, T/C [19] was 89%. The viability, T/C [20] was 97.1%, the viability, T/C [21] was 113% and the viability, T/C [22] was 75.8%. For the same compound, the viability, T/C [45] was 94.1%, the viability, T/C [46] was 96.7% and the viability, T/C [25] was 85.2%. The viability, T/C [26] was 118%, the viability, T/C [27] was 104% and the viability, T/C [28] was 104%. The viability, T/C [47] was 119%, the viability, T/C [48] was 104% and the viability, T/C [31] was 101%. It also gave a viability, T/C [32] of 105%, a viability, T/C [33] of 109% and a viability, T/C [34] of 114%.
